Experimental data: patent publication US8247352B2, “Method of inhibiting ethylene production in plants” (The Regents of the University of California, priority 2005, dated 2012)
Values joined by “and” are separate entries in the source; they are usually repeats but may differ in a detail not shown here. Equal values may be shown once.

Legend:
ACC Oxidase = molecular target: T1, ACC Oxidase (Solanum lycopersicum, UniProt P05116); assay: Stoichiometry of O2 consumed to product formed (CO2 or ethylene), extent of uncoupling; type: biochemical, Lycopersicon esculentum; details: for Ratio O2 consumed to product formed, O2:CO2 / Ratio O2 consumed to product formed, O2:ethylene: saturating substrate, 30 mM ascorbate, ambient O2; for Ratio O2 consumed to product formed, O2:CO2: [14C]-CO2 trapping; for Ratio O2 consumed to product formed, O2:ethylene: ethylene by GC-FID
T1 construct: made in house; host or cells: Escherichia coli BL21 (DE3)pLysS
T1 sequence (P05116 whole entry): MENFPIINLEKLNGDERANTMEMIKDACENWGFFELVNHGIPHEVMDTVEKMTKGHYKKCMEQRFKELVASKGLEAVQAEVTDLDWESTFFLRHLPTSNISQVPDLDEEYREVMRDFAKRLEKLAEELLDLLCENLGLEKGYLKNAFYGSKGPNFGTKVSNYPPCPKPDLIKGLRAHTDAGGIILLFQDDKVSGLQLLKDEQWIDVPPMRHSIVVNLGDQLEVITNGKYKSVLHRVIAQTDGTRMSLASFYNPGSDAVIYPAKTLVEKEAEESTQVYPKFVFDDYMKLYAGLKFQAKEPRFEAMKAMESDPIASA
Description: Oxygen consumption was measured using a YSI model 5300 biological oxygen monitor as described above. Reactions contained D-[1-^14C]-Ala, [carboxyl-^14C]-ACC, α-[1-^14C]-AIB, or [1-^14C]-Gly in trace amounts. […] Reactions (1 mL) were initiated with a pre-incubated mixture of ACCO:Fe(II) in a 2:1 ratio. This was done to minimize free Fe(II) in solution. Final concentrations were typically 10 μM ACCO and 5 μM Fe(II). Reactions were quenched by addition of 3 μL of 0.1 M 3-[2-Pyridyl]-5,6-diphenyl-1,2,4-triazine-4,4′-disulfonic acid (FERROZINE®) and the O2 consumption rate was allowed to stabilize. The reaction (0.8 mL) was removed with a gas-tight syringe and injected into a small vial containing 0.1 mL 10% HCl that was inside a larger vial containing the CO2 trap (see above). The acidified reaction mixture and the CO2 trap were stirred for 2 h, and radioactivity from [^14C]—CO2 was determined as described above. Controls measuring the efficiency of the CO2 trap were done by injecting a known amount of [^14C]—NaHCO3 into the vial containing acid, as above, and measuring the amount of [^14C]—CO2 recovered. Efficiency of trapping was routinely ˜98%.
O2 consumption was measured using an Ocean Optics FOXY fiber optic oxygen sensor, with the fiber optic probe inserted through a syringe into an airtight septum, thus preventing ethylene escape. […] ACCO:Fe(II) (final concentrations 10 μM ACCO and 5 μM Fe(II)) was injected by syringe into a ½ dram vial covered with a septum with no headspace. The reaction was quenched as described above. A 10 mL syringe filled with air was used to transfer the reaction mixture to a 10 mL test tube covered with a septum using a cannula. The test tube was stirred vigorously for at least 4 hours before ethylene analysis. Ethylene was measured by injecting 2 mL of the headspace onto a GC equipped with a RT-Alumina GC column (final sample size was 250 μL). Ethylene was separated using ultrapure helium (grade 5) as the carrier gas at 40° C. detected by flame ionization (FID). The data were collected and the peak area was determined. Calibration for ethylene was done with Scotty IV mix 3 hydrocarbon standard (Scotty Specialty Gases). The ppm of ethylene was converted to nanomoles of ethylene per unit volume using the ideal gas law. Dilution of ethylene during sampling was taken into account in the calculations.
The extent of uncoupling for ACCO with both cyclic and acyclic substrate analogs was determined by comparing the amount of O2 consumed and product, either ethylene or CO2, formed. All reactions were carried out at saturating substrate and ascorbate concentrations to minimize potential O2 reaction in the absence of substrate. […] O2 measurements were quenched during or just as the linear phase of the reaction began to fall off due to either loss of Fe(II) from the enzyme or possible enzyme inactivation. The results distinguish between amounts of uncoupling.
For cyclic substrate analogs and ACC, the stoichiometry was determined by comparing O2 consumption with ethylene formation by GC-FID. […] The stoichiometry of O2 consumed to ethylene produced for ACC was 1.44 and to CO2 produced was 1.18, which is identical to that reported by Dong, et. al (Dong et al., 1992).

ACC Oxidase (ACCO, ACO1) = molecular target: T2, ACC Oxidase (ACCO, ACO1) (Solanum lycopersicum, UniProt P05116); assay: Initial velocity assays (rate of oxygen consumption) with ACC or substrate analogs; type: biochemical, Lycopersicon esculentum; details: for Km compared to ACC (in words) / Km increased by factor compared with ACC / Rate of O2 consumption by ACCO compared with ACC (in words): from Table 1; for Km / Vmax: O2 consumption, 25° C., pH 7.2, [Ascorbate] = 30 mM, [O2] = 258 μM, [CO2/bicarbonate] = 20 mM
T2 construct: made in house; host or cells: Escherichia coli BL21 (DE3)pLysS
T2 sequence (P05116 whole entry): as above
Description: ACCO from Lycopersicon esculentum (ACO1) was produced in Escherichia coli strain BL21 (DE3)pLysS and purified by a two-column purification procedure as previously described (Thrower, J. S. et al., 2001).
Initial velocities were measured by the rate of oxygen consumption at 25° C., pH 7.2, using a YSI model 5300 biological oxygen monitor as previously described (Thrower 2001) with minor modifications. Standard reaction mixture (1 ml) contained 100 mM MOPS, pH 7.2, 20 mM NaHCO3, 100 mM NaCl, 20 mM sodium ascorbate, 0.1 mg/ml BSA, and ACC or substrate analog at various concentrations. Oxygen concentrations were kept at atmospheric concentration and determined using the oxygen monitor that was calibrated with air saturated water (258 μM oxygen at 25° C.). Reactions were initiated with 2 μL ACCO reconstituted with equimolar Fe(NH4)2(SO4)2. Data from initial velocity experiments with varying substrate concentrations were fitted to the Michaelis-Menton equation using the program Kalideograph.
Either cyclic substrate analogs (including inhibitor Me-ACC, ACC-NH2, or ACC-OMe) or acyclic substrate analogs (AIB, D-Ala, or Gly) were used. […] Ascorbate and oxygen concentrations were kept constant at 30 mM and ˜258 μM, respectively.

ACCO:Fe(II) = molecular target: T3, ACCO:Fe(II) (Solanum lycopersicum, UniProt P05116); assay: Ethylene trapping assay: substrate turnover by ACCO:Fe(II), ethylene trapped as dibromoethane, GC-MS; type: biochemical, Lycopersicon esculentum; details: for Amount of ethylene formed during the reaction time relative to reaction with ACC: 1 hr incubation with ACCO:Fe(II); for Ethylene produced relative to predicted ethylene during the reaction time course: prediction from kcat
T3 construct: made in house; host or cells: Escherichia coli BL21 (DE3)pLysS
T3 sequence (P05116 whole entry): as above
Description: For detection of CO2, trace radiolabeled compound was used as appropriate. A small vial containing the reaction mixture minus enzyme was placed along side of another small vial containing the ethylene or CO2 trap. Both vials were placed in a large vial, which was capped with a septum. ACCO:Fe(II) was introduced into the reaction vial with a syringe and both the reaction vial and trap vial were stirred for 1 h. For [^14C]—CO2 trapping, a 1 mL solution of freshly prepared 10 M NaOH was used as the trapping agent. At the end of the reaction, the trap was removed and added to 15 mL scintillation fluid (Hionic-Fluor, Perkin Elmer) and radioactivity determined by scintillation counting. For ethylene, a […] solution of Br2 in CCl4 was used as the trap. A small amount of 2,5-dibromohexane was added to the trap as an internal standard. At the completion of the reaction, a small excess of 2,3-dimethyl-2-butene was added to the trap to quench unreacted Br2, and the trap was analyzed by GC-MS. Dibromoethane purchased from Aldrich was used as a standard.
The ability of ACCO to turnover ACC or the cyclic substrate analogs (MeACC, ACC-NH2, or ACC-OMe) was determined by the formation of ethylene. Each substrate analog or ACC was incubated for 1 hr with ACCO:Fe(II) in a closed reaction vial containing an ethylene trap that would convert ethylene to dibromoethane. At the end of the reaction time, the ethylene trap was quenched and analyzed for dibromoethane by GC-MS. Reactions with BSA/Fe(II) were used as a control for non-enzymatic ethylene formation. The formation of ethylene was detected in the reaction vials of ACC and all the cyclic analogs in the presence of ACCO:Fe(II). No ethylene was detected in any of the BSA/Fe(II) reactions. The amount of ethylene formed during the reaction time from the cyclic analogs was lower than that from the reaction with ACC (MeACC=14%, ACCNH2=13%, ACC-OMe=79%). If the rates of O2 consumption for the reactions with the different substrates are considered, the kcat for ACC-OMe is approximately 75% of that for ACC, which would be consistent with the amount of ethylene produced during the time course of the reaction. […] Although the purity of both MeACC and ACCNH2 by elemental analysis was determined >95%, it is possible that a small amount of contaminating ACC could be responsible for the ethylene formed in these reactions. To determine whether ethylene was being formed from the substrate analog and not from contaminating ACC, reactions with each analog were done in the presence of increasing concentration of ACCO:Fe(II). In the case of a small amount of contamination where the ACC would be quickly depleted during the reaction, the result would be a non-linear dependence of ethylene production with increasing ACCO concentration.

ACCO = molecular target: T4, ACCO (Solanum lycopersicum, UniProt P05116); assay: Labeling of ACCO by radiolabeled N-Me-ACC (centrifugal filtration, scintillation counting); type: binding, Lycopersicon esculentum; details: approximately equal concentrations, standard reaction conditions, quenched with Ferrozine
T4 construct: made in house; host or cells: Escherichia coli BL21 (DE3)pLysS
T4 sequence (P05116 whole entry): as above
Description: Radiolabeled N-Me-ACC was incubated with ACCO (approximately equal concentrations) in standard reaction conditions. The reaction was quenched using Ferrozine. The solution was placed in a Millipore 10K NMWL Ultrafree®-MC Centrifugal Filter Unit and centrifuged for 15 min. at 14K rpm. The remaining protein (˜20 μL) was washed with 3×1 mL of either water, reaction buffer, or 0.1% TFA by repeated centrifugation. The protein was collected and radioactivity determined by scintillation counting in 12 mL EcoLite^+ scintillation fluid.

Row | SMILES | Products detected (ACC Oxidase) | Ratio O2 consumed to product formed, O2:CO2 (ACC Oxidase) | Ratio O2 consumed to product formed, O2:ethylene (ACC Oxidase) | Km compared to ACC (in words) (ACC Oxidase (ACCO, ACO1)) | kcat slower than the kcat for ACC (ACC Oxidase (ACCO, ACO1); from rates of O2 consumption) | Amount of ethylene formed during the reaction time relative to reaction with ACC (ACCO:Fe(II)) | Ethylene produced relative to predicted ethylene during the reaction time course (ACCO:Fe(II)) | Km (ACC Oxidase (ACCO, ACO1)) | Vmax (ACC Oxidase (ACCO, ACO1)) | Km increased by factor compared with ACC (ACC Oxidase (ACCO, ACO1)) | kcat as percent of that for ACC (ACC Oxidase (ACCO, ACO1); from rates of O2 consumption) | Rate of O2 consumption by ACCO compared with ACC (in words) (ACC Oxidase (ACCO, ACO1)) | Labeling of ACCO by radiolabeled compound (ACCO)
1 | NC1(C(=O)O)CC1 [ACC, 1-aminocyclopropane-1-carboxylic acid, reference compound] | Ethylene, CO2 | 1.18 and 1.2 and 1.18 ± 0.17 | 1.44 and 1.44 ± 0.22 |  |  |  |  |  |  |  |  |  | 
2 | NC(=O)C1(N)CC1 [ACC-NH2] | Ethylene |  | 4.40 ± 1.56 | not significantly altered | ~30% | 13% | about half the predicted ethylene |  |  |  |  |  | 
3 | COC(=O)C1(N)CC1 [ACC-OMe] | Ethylene |  | 1.81 ± 0.72 |  |  | 79% |  | 2760 ± 550 µM | 27.3 ± 1.7 min⁻¹ | ~28 fold | approximately 75% |  | 
4 | CC(C)(N)C(=O)O [AIB, α-aminoisobutyric acid] | Acetone, CO2 | 1.7 and 1.68 ± 0.12 |  |  |  |  |  |  |  | 9.3 fold |  | comparable | 
5 | C[C@@H](N)C(=O)O [D-Alanine, D-alanine] | Acetaldehyde, CO2 | 3.46 ± 0.51 |  |  |  |  |  |  |  | 44.7 fold |  | comparable | 
6 | NCC(=O)O [Glycine, glycine] | CO2 |  |  |  |  |  |  |  |  |  |  |  | 
7 | CNC1(C(=O)O)CC1 [N-Me-ACC] | Ethylene |  | 3.17 ± 0.86 | not significantly altered | ~30% | 14% | about half the predicted ethylene | 107 ± 21 µM | 12.2 ± 0.5 min⁻¹ |  |  |  | irreversibly labels ACCO in a short period of time
